Data taken from PMC5218480 (PLoS ONE, 2017).

Test system: MV-4-11 cells
Assay: Gene expression microarray analysis (Affymetrix PrimeView) and GSEA
Type: cell-based, human
Design: RFU PODN (11730768_x_at) / Fold change /veh PODN (11730768_x_at) / RFU LINC00158 (11744669_a_at) / Fold change /veh LINC00158 (11744669_a_at) / RFU DUSP10 (11751237_a_at) / Fold change /veh DUSP10 (11751237_a_at) / RFU ID3 (11757404_x_at) / Fold change /veh ID3 (11757404_x_at) / RFU PLEKHG5 (11737974_s_at) / Fold change /veh PLEKHG5 (11737974_s_at) / RFU LRRC4B (11730491_at) / Fold change /veh LRRC4B (11730491_at) / RFU GIMAP4 (11747438_a_at) / Fold change /veh GIMAP4 (11747438_a_at) / RFU KRT8 (11758183_x_at) / Fold change /veh KRT8 (11758183_x_at) / RFU CNN1 (11734310_a_at) / Fold change /veh CNN1 (11734310_a_at) / RFU VPS37D (11726825_at) / Fold change /veh VPS37D (11726825_at) / RFU C10orf10 (11716522_x_at) / Fold change /veh C10orf10 (11716522_x_at) / RFU KIR2DL2 /// KIR2DL4 /// KIR2DL5A /// KIR2DL5B /// KIR2DS1 /// KIR2DS2 /// KIR2DS3 /// KIR2DS4 /// KIR3DL3 /// KIR3DL3 /// KIR3DS1 (11738374_at) / Fold change /veh KIR2DL2 /// KIR2DL4 /// KIR2DL5A /// KIR2DL5B /// KIR2DS1 /// KIR2DS2 /// KIR2DS3 /// KIR2DS4 /// KIR3DL3 /// KIR3DL3 /// KIR3DS1 (11738374_at) / RFU C1QL1 (11718748_at) / Fold change /veh C1QL1 (11718748_at) / RFU TMPRSS4 (11747572_a_at) / Fold change /veh TMPRSS4 (11747572_a_at) / RFU HAMP (11756126_x_at) / Fold change /veh HAMP (11756126_x_at) / RFU RNFT2 (11725882_a_at) / Fold change /veh RNFT2 (11725882_a_at) / RFU NR4A2 (11747474_a_at) / Fold change /veh NR4A2 (11747474_a_at) / RFU ABCC12 (11746883_a_at) / Fold change /veh ABCC12 (11746883_a_at) / RFU TMEM136 (11760407_x_at) / Fold change /veh TMEM136 (11760407_x_at) / RFU CLDN22 /// WWC2 (11732394_at) / Fold change /veh CLDN22 /// WWC2 (11732394_at) / RFU HLA-DPB1 (11760878_x_at) / Fold change /veh HLA-DPB1 (11760878_x_at) / RFU SPINT1 (11716480_a_at) / Fold change /veh SPINT1 (11716480_a_at) / RFU GAP43 (11754022_s_at) / Fold change /veh GAP43 (11754022_s_at) / RFU A4GNT (11735810_at) / Fold change /veh A4GNT (11735810_at) / RFU PRB3 (11715151_x_at) / Fold change /veh PRB3 (11715151_x_at) / RFU TUBB4B (11761932_at) / Fold change /veh TUBB4B (11761932_at) / RFU CAPN14 (11732068_a_at) / Fold change /veh CAPN14 (11732068_a_at) / RFU TMCC2 (11721928_a_at) / Fold change /veh TMCC2 (11721928_a_at) / RFU IRGQ (11745062_a_at) / Fold change /veh IRGQ (11745062_a_at) / RFU FAM174B (11720279_a_at) / Fold change /veh FAM174B (11720279_a_at) / RFU TMPRSS4 (11748680_a_at) / Fold change /veh TMPRSS4 (11748680_a_at) / RFU FAM212B (11763350_a_at) / Fold change /veh FAM212B (11763350_a_at) / RFU PLEKHG5 (11743358_a_at) / Fold change /veh PLEKHG5 (11743358_a_at) / RFU ZSCAN30 (11745921_a_at) / Fold change /veh ZSCAN30 (11745921_a_at) / RFU CMKLR1 (11741424_a_at) / Fold change /veh CMKLR1 (11741424_a_at) / RFU LOC101060620 /// MAPK8IP1 (11723275_at) / Fold change /veh LOC101060620 /// MAPK8IP1 (11723275_at) / RFU SPTSSB (11747773_x_at) / Fold change /veh SPTSSB (11747773_x_at) / RFU PRSS12 (11739890_at) / Fold change /veh PRSS12 (11739890_at) / RFU BIN1 (11741810_x_at) / Fold change /veh BIN1 (11741810_x_at) / RFU WNT11 (11732464_a_at) / Fold change /veh WNT11 (11732464_a_at) / RFU C10orf10 (11716521_a_at) / Fold change /veh C10orf10 (11716521_a_at) / RFU C5orf56 (11738089_at) / Fold change /veh C5orf56 (11738089_at) / RFU CYB561 (11721691_x_at) / Fold change /veh CYB561 (11721691_x_at) / RFU ANKRD19P (11752326_a_at) / Fold change /veh ANKRD19P (11752326_a_at) / RFU OR2T12 /// OR2T33 /// OR2T8 (11738714_s_at) / Fold change /veh OR2T12 /// OR2T33 /// OR2T8 (11738714_s_at) / RFU VCAN (11748164_a_at) / Fold change /veh VCAN (11748164_a_at) / RFU JSRP1 (11732532_at) / Fold change /veh JSRP1 (11732532_at) / RFU KRTAP10-11 (11738290_x_at) / Fold change /veh KRTAP10-11 (11738290_x_at) / RFU MYO3A (11730013_a_at) / Fold change /veh MYO3A (11730013_a_at) / RFU EBF3 (11725865_a_at) / Fold change /veh EBF3 (11725865_a_at) / RFU CAMK2N1 (11719241_x_at) / Fold change /veh CAMK2N1 (11719241_x_at) / RFU C5orf56 (11738088_a_at) / Fold change /veh C5orf56 (11738088_a_at) / RFU OLFML3 (11715873_a_at) / Fold change /veh OLFML3 (11715873_a_at) / RFU LOC100653217 /// NTM (11731650_a_at) / Fold change /veh LOC100653217 /// NTM (11731650_a_at) / RFU MAPK11 (11762145_a_at) / Fold change /veh MAPK11 (11762145_a_at) / RFU FIZ1 (11724087_x_at) / Fold change /veh FIZ1 (11724087_x_at) / RFU OASL (11726364_x_at) / Fold change /veh OASL (11726364_x_at) / RFU SOX15 (11748057_x_at) / Fold change /veh SOX15 (11748057_x_at) / RFU CD79A (11719716_a_at) / Fold change /veh CD79A (11719716_a_at) / RFU HIST1H1D (11736915_at) / Fold change /veh HIST1H1D (11736915_at) / RFU CASKIN2 (11723855_a_at) / Fold change /veh CASKIN2 (11723855_a_at) / RFU LOC730098 (11760151_x_at) / Fold change /veh LOC730098 (11760151_x_at) / RFU OR4N2 (11742367_at) / Fold change /veh OR4N2 (11742367_at) / RFU PRRT2 (11749266_a_at) / Fold change /veh PRRT2 (11749266_a_at) / RFU SNX32 (11753110_a_at) / Fold change /veh SNX32 (11753110_a_at) / RFU CDHR5 (11726645_a_at) / Fold change /veh CDHR5 (11726645_a_at) / RFU RCAN1 (11760418_a_at) / Fold change /veh RCAN1 (11760418_a_at) / RFU FAM167A (11723789_a_at) / Fold change /veh FAM167A (11723789_a_at) / RFU FAM26E (11764081_at) / Fold change /veh FAM26E (11764081_at) / RFU ISYNA1 (11749810_s_at) / Fold change /veh ISYNA1 (11749810_s_at) / RFU ACY1 (11761880_at) / Fold change /veh ACY1 (11761880_at) / RFU 11764098_at / Fold change /veh 11764098_at / RFU SAMD14 (11745864_x_at) / Fold change /veh SAMD14 (11745864_x_at) / RFU NPB (11741838_a_at) / Fold change /veh NPB (11741838_a_at) / RFU TMPRSS6 (11731388_a_at) / Fold change /veh TMPRSS6 (11731388_a_at) / RFU KRTAP10-2 (11738614_at) / Fold change /veh KRTAP10-2 (11738614_at) / RFU ARHGAP8 /// PRR5-ARHGAP8 (11727945_x_at) / Fold change /veh ARHGAP8 /// PRR5-ARHGAP8 (11727945_x_at) / RFU KRTAP5-7 /// NADSYN1 (11734609_at) / Fold change /veh KRTAP5-7 /// NADSYN1 (11734609_at) / RFU RASL12 (11751679_a_at) / Fold change /veh RASL12 (11751679_a_at) / RFU CDKN2B (11736163_a_at) / Fold change /veh CDKN2B (11736163_a_at) / RFU PRF1 (11729649_at) / Fold change /veh PRF1 (11729649_at) / RFU, ZNF638 /// ZNF638-IT1 / Fold change vs veh, ZNF638 /// ZNF638-IT1 / RFU, PANK3 / Fold change vs veh, PANK3 / RFU, SH3YL1 / Fold change vs veh, SH3YL1 / RFU, ZEB2 / Fold change vs veh, ZEB2 / RFU, NRIP1 / Fold change vs veh, NRIP1 / RFU, PTTG1IP / Fold change vs veh, PTTG1IP / RFU, CAPN2 / Fold change vs veh, CAPN2 / RFU, MED14 / Fold change vs veh, MED14 / RFU, SNORA58 / Fold change vs veh, SNORA58 / RFU, C1orf63 / Fold change vs veh, C1orf63 / RFU, LRRFIP1 / Fold change vs veh, LRRFIP1 / RFU, NDUFAF7 / Fold change vs veh, NDUFAF7 / RFU, SLC12A2 / Fold change vs veh, SLC12A2 / RFU, IBTK / Fold change vs veh, IBTK / RFU, ESF1 / Fold change vs veh, ESF1 / Fold change vs veh, TMEM50B / RFU, TAOK1 / Fold change vs veh, TAOK1 / RFU, ACBD3 / Fold change vs veh, ACBD3 / RFU, TMA16 / Fold change vs veh, TMA16 / RFU, RWDD3 / Fold change vs veh, RWDD3 / RFU, BCAT1 / Fold change vs veh, BCAT1 / RFU, EDEM3 / Fold change vs veh, EDEM3 / RFU, TMEM33 / Fold change vs veh, TMEM33 / RFU, WDR75 / Fold change vs veh, WDR75 / RFU, AHCTF1 / Fold change vs veh, AHCTF1 / RFU, TFRC / Fold change vs veh, TFRC / RFU, ZDHHC17 / Fold change vs veh, ZDHHC17 / RFU, NOM1 / Fold change vs veh, NOM1 / RFU, ARL8B / Fold change vs veh, ARL8B / RFU, ZBTB11 / Fold change vs veh, ZBTB11 / RFU, TAMM41 / Fold change vs veh, TAMM41 / RFU, KIAA1704 /// LOC100996395 / Fold change vs veh, KIAA1704 /// LOC100996395 / RFU, ING1 / Fold change vs veh, ING1 / RFU, TRMT61B / Fold change vs veh, TRMT61B / RFU, FUBP3 / Fold change vs veh, FUBP3 / RFU, TP53 / Fold change vs veh, TP53 / RFU, TNKS2 / Fold change vs veh, TNKS2 / RFU, ZFP14 / Fold change vs veh, ZFP14 / RFU, ACTR2 / Fold change vs veh, ACTR2 / RFU, PPP3R1 / Fold change vs veh, PPP3R1 / RFU, PIK3R1 / Fold change vs veh, PIK3R1 / RFU, HNRNPA1 / Fold change vs veh, HNRNPA1 / RFU, RNF170 / Fold change vs veh, RNF170 / RFU, ZNF28 / Fold change vs veh, ZNF28 / RFU, RNGTT / Fold change vs veh, RNGTT / RFU, OGT / Fold change vs veh, OGT / RFU, BRD1 / Fold change vs veh, BRD1 / RFU, MARS / Fold change vs veh, MARS / RFU, ZNF655 / Fold change vs veh, ZNF655 / RFU, FAHD1 / Fold change vs veh, FAHD1 / RFU, BDP1 / Fold change vs veh, BDP1 / RFU, LRRCC1 / Fold change vs veh, LRRCC1 / RFU, ARID1A / Fold change vs veh, ARID1A / RFU, ZNF146 / Fold change vs veh, ZNF146 / RFU, ZNF330 / Fold change vs veh, ZNF330 / RFU, GPN3 / Fold change vs veh, GPN3 / RFU, C9orf123 / Fold change vs veh, C9orf123 / RFU, N4BP2L2 / Fold change vs veh, N4BP2L2 / RFU, ARFIP1 / Fold change vs veh, ARFIP1 / RFU, FAM179B / Fold change vs veh, FAM179B / RFU, BCL10 / Fold change vs veh, BCL10 / RFU, UHRF1BP1L / Fold change vs veh, UHRF1BP1L / RFU, BET1 / Fold change vs veh, BET1 / RFU, CNOT2 / Fold change vs veh, CNOT2 / RFU, ZNF268 / Fold change vs veh, ZNF268 / Fold change vs veh, ZNF507 / RFU, DGCR2 / Fold change vs veh, DGCR2 / RFU, WDSUB1 / Fold change vs veh, WDSUB1 / Fold change vs veh, HSP90B1 /// MIR3652 / RFU, ADSS / Fold change vs veh, ADSS / RFU, GK / Fold change vs veh, GK / RFU, ZNF148 / Fold change vs veh, ZNF148 / RFU, TAF9 / Fold change vs veh, TAF9 / RFU, SLC1A5 / Fold change vs veh, SLC1A5 / RFU, SLMO2 / Fold change vs veh, SLMO2 / RFU, ABCC4 / Fold change vs veh, ABCC4 / RFU, LOC101060439 /// RAP1B / Fold change vs veh, LOC101060439 /// RAP1B / RFU, RFX7 / Fold change vs veh, RFX7 / RFU, GTPBP10 / Fold change vs veh, GTPBP10 / RFU, CNEP1R1 / Fold change vs veh, CNEP1R1 / RFU, BIVM-ERCC5 /// ERCC5 / Fold change vs veh, BIVM-ERCC5 /// ERCC5 / RFU, ILF3 / Fold change vs veh, ILF3 / RFU 11762660_at / Fold change /veh 11762660_at / RFU VCAN (11757783_s_at) / Fold change /veh VCAN (11757783_s_at) / RFU DDX43 (11728927_at) / Fold change /veh DDX43 (11728927_at) / RFU KRT8 (11758188_x_at) / Fold change /veh KRT8 (11758188_x_at) / RFU NKD1 (11759106_at) / Fold change /veh NKD1 (11759106_at) / RFU SRD5A1 (11742802_a_at) / Fold change /veh SRD5A1 (11742802_a_at) / RFU TPSAB1 /// TPSB2 (11721975_s_at) / Fold change /veh TPSAB1 /// TPSB2 (11721975_s_at) / RFU GSTM3 (11746129_a_at) / Fold change /veh GSTM3 (11746129_a_at) / RFU IL23R (11737362_x_at) / Fold change /veh IL23R (11737362_x_at) / RFU TMEM51 (11727254_a_at) / Fold change /veh TMEM51 (11727254_a_at) / RFU PIWIL2 (11732686_x_at) / Fold change /veh PIWIL2 (11732686_x_at) / RFU ORM1 (11744905_x_at) / Fold change /veh ORM1 (11744905_x_at) / RFU CCDC152 (11743942_at) / Fold change /veh CCDC152 (11743942_at) / RFU ECM1 (11717891_a_at) / Fold change /veh ECM1 (11717891_a_at) / RFU IL23R (11748794_a_at) / Fold change /veh IL23R (11748794_a_at) / RFU TNFAIP8L3 (11732012_x_at) / Fold change /veh TNFAIP8L3 (11732012_x_at) / RFU MBOAT4 (11741988_at) / Fold change /veh MBOAT4 (11741988_at) / RFU 11764193_at / Fold change /veh 11764193_at / RFU TMEM53 (11763286_at) / Fold change /veh TMEM53 (11763286_at) / RFU MAGEB2 (11727129_at) / Fold change /veh MAGEB2 (11727129_at) / RFU TMEM200A (11744735_a_at) / Fold change /veh TMEM200A (11744735_a_at) / RFU CCDC152 (11751479_a_at) / Fold change /veh CCDC152 (11751479_a_at) / RFU FAM211A (11726209_a_at) / Fold change /veh FAM211A (11726209_a_at) / RFU RGS16 (11746705_a_at) / Fold change /veh RGS16 (11746705_a_at) / RFU VCAN (11755009_s_at) / Fold change /veh VCAN (11755009_s_at) / RFU RHOB (11743442_s_at) / Fold change /veh RHOB (11743442_s_at) / RFU RGS16 (11720943_a_at) / Fold change /veh RGS16 (11720943_a_at) / RFU RGS16 (11720944_at) / Fold change /veh RGS16 (11720944_at) / RFU, VPS4B / Fold change vs veh, VPS4B / RFU, CREB1 / Fold change vs veh, CREB1 / RFU, DNAJC13 / Fold change vs veh, DNAJC13 / RFU, GNAQ / Fold change vs veh, GNAQ / RFU, CDK5R1 / Fold change vs veh, CDK5R1 / RFU, ZRANB3 / Fold change vs veh, ZRANB3 / RFU, CUL4A / Fold change vs veh, CUL4A / RFU, CCNY / Fold change vs veh, CCNY / RFU, UFL1 / Fold change vs veh, UFL1 / RFU, COG3 / Fold change vs veh, COG3 / RFU, DIAPH2 / Fold change vs veh, DIAPH2 / RFU, SKA2 / Fold change vs veh, SKA2 / RFU, AFF3 / Fold change vs veh, AFF3 / RFU, LMF1 / Fold change vs veh, LMF1 / RFU, IPO11 / Fold change vs veh, IPO11 / RFU, DFFB / Fold change vs veh, DFFB / RFU, FOXP1 / Fold change vs veh, FOXP1 / RFU, CARD8 / Fold change vs veh, CARD8 / RFU, STRN3 / Fold change vs veh, STRN3 / RFU, ADK / Fold change vs veh, ADK / RFU, RASSF2 / Fold change vs veh, RASSF2 / RFU, WIPF1 / Fold change vs veh, WIPF1 / RFU, LARP1B / Fold change vs veh, LARP1B / RFU, RASA1 / Fold change vs veh, RASA1 / RFU, RB1 / Fold change vs veh, RB1 / RFU, PPFIA1 / Fold change vs veh, PPFIA1 / RFU, MAT2A / Fold change vs veh, MAT2A / RFU, CCT5 / Fold change vs veh, CCT5 / RFU, WDR92 / Fold change vs veh, WDR92 / RFU, CUX1 / Fold change vs veh, CUX1 / RFU, TTC7A / Fold change vs veh, TTC7A / RFU, TMEM135 / Fold change vs veh, TMEM135 / RFU, DEPTOR / Fold change vs veh, DEPTOR / RFU, CPM / Fold change vs veh, CPM / RFU, DNAJB6 / Fold change vs veh, DNAJB6 / RFU, CACNA2D3 / Fold change vs veh, CACNA2D3 / RFU, DTX4 / Fold change vs veh, DTX4 / RFU, TFCP2 / Fold change vs veh, TFCP2 / RFU, GMCL1 /// GMCL1P1 / Fold change vs veh, GMCL1 /// GMCL1P1 / RFU, AEBP2 / Fold change vs veh, AEBP2 / RFU, SNHG1 /// SNORD22 /// SNORD25 /// SNORD26 /// SNORD27 /// SNORD28 /// SNORD29 /// SNORD31 / Fold change vs veh, SNHG1 /// SNORD22 /// SNORD25 /// SNORD26 /// SNORD27 /// SNORD28 /// SNORD29 /// SNORD31 / Fold change (Aza/veh), C12orf56 (ProbeSet 11735607_a_at) / Fold change (ACY-1035/veh), C12orf56 (ProbeSet 11735607_a_at) / Fold change (Aza/veh), FGFR1OP (ProbeSet 11751329_s_at) / Fold change (ACY-1035/veh), FGFR1OP (ProbeSet 11751329_s_at) / Fold change (Aza/veh), VPS36 (ProbeSet 11739960_a_at) / Fold change (ACY-1035/veh), VPS36 (ProbeSet 11739960_a_at) / RFU SYPL1 (11715823_x_at) / Fold change /veh SYPL1 (11715823_x_at) / RFU IGFBP7 (11715501_s_at) / Fold change /veh IGFBP7 (11715501_s_at) / RFU REEP3 (11722064_at) / Fold change /veh REEP3 (11722064_at) / RFU IGLL1 (11728026_x_at) / Fold change /veh IGLL1 (11728026_x_at): dose or concentration left out as unconfirmed
Conditions: ProbeSet 11721559_s_at; LIST B

Nc1ncn([C@@H]2O[C@H](CO)[C@@H](O)[C@H]2O)c(=O)n1 [azacitidine]
RFU, ZNF638 /// ZNF638-IT1: 347.20 RFU
